Tested on: isolated-perfused murine heart
Assay: Isolated perfused heart (Langendorff) ischemia-reperfusion, infarct size by TTC staining
Settings: ex vivo mouse heart, 20 min global ischemia, 100 μM infused first 7 min of 90 min reperfusion; KH control 42%
Description: Male C57BL/6J mice obtained from Jackson Laboratories (Bar Harbor, Me., USA) were used for all experiments. Mice were between 12 and 14 weeks of age at the time of experimentation. All animals received humane care in compliance with the “Principles of Laboratory Animal Care” formulated by the National Society for Medical Research and the “Guide for the Care and Use of Laboratory Animals” published by the US National Institutes of Health. The Animal Care and Use Committee from Johns Hopkins University approved of this study.
After anticoagulation with heparin and cervical dislocation, a thoracotomy was performed and the heart was quickly excised and placed in ice-cold Krebs-Henseleit buffer (in mmol/L: 11.1 D-glucose, 1.2 MgSO4, 1.2 KH2PO4, 4.7 KCl, 118 NaCl, 2 CaCl2), 25 NaHCO3). The aorta was cannulated, and the heart was perfused with Krebs-Henseleit buffer (oxygenated with 95% O2/5% CO2 and maintained at pH 7.4) in retrograde fashion at a constant pressure of 80 mm/Hg at 37° C. After baseline equilibration for 20 min, mouse hearts were subjected to 20 min of no-flow global ischemia followed by 90 min of reperfusion. Pharmacological postconditioning with 7b (100 μM) was performed at the onset of reperfusion for 7 min. Hearts were then reperfused for a total of 90 min. Control hearts received no pharmacological postconditioning. […]

SMILES: COC(=O)C(NC(C)=O)C(C)(C)SSC(=O)N(C)CCN (stereo not shown) [Precursor 7b, 2-(((3-acetamido-4-methoxy-2-methyl-4-oxobutan-2-yl)disulfannecarbonyl)(methyl)amino)ethan-1-aminium]
- infarct size: 16%

Source: patent publication US11584712B2, “Alkylamine-substituted perthiocarbamates as dual precursors to hydropersulfide and carbonyl sulfide” (The Johns Hopkins University, priority 2020, dated 2023)
